From article PMC9231011, “Irreversible Antagonists for the Adenosine A2B Receptor” (Molecules, 2022)

Biological target: T1, human A1AR (Homo sapiens, UniProt P30542)
T1 construct: purchased Perkin Elmer ES-010-M400UA
T1 sequence (P30542 1-326): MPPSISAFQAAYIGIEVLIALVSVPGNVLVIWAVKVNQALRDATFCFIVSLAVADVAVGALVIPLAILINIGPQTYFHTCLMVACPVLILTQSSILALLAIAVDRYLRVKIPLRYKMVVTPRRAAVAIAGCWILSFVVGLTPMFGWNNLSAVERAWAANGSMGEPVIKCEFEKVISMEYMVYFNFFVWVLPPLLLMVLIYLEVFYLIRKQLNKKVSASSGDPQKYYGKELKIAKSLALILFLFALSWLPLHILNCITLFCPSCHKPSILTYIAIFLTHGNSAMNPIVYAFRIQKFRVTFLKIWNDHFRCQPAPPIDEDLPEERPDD
Experiment: Competitive radioligand binding vs [3H]CCPA
Details: for Ki: apparent Ki for irreversibly binding ligands, three independent experiments, read-out: A1AR vs. Radioligand [3H]CCPA Ki ± SEM
Excerpt: The potentially irreversible xanthine derivatives were investigated for their binding affinity at human A2BARs and for their selectivity versus the other human AR subtypes, A1, A2A, and A3, by competitive radioligand binding experiments.
The human A2AAR, the mutant human A2BAR (K269^7.32L), and the human A3AR were transiently expressed in FreeStyle^TM CHO-S cells using the transfection reagent polyethylenimine (PEI) at a ratio of 1:3 to DNA according to the manufacturer’s guideline. pcDNA3.1(+) was used as the transfection vector containing the cDNA for either the wt ARs or the K269^7.32L mutant A2BAR that was prepared by site-directed mutagenesis with the following primer: forward […], reverse […]. CHO-S cells were grown in FreeStyle^TM CHO Expression Medium supplemented with 8 mM L-glutamine before use and split to 0.5 mio. cells per mL the day before transfection. Twenty-four hours after transfection, cells were spun down by centrifugation for 15 min at 500× g. Cells were disrupted by resuspension in 5 mM tris(hydroxymethyl)aminomethane buffer (Tris, pH 7.4) containing 2 mM ethyl-ene¬diaminetetraacetic acid (EDTA) with subsequent homogenization using an Ultra-Turrax homogenizer. The cell suspension was centrifuged for 10 min at 1000× g and the obtained supernatant was pelleted by centrifugation for 60 min at 48,000× g. The supernatant was discarded and the pellet washed with 50 mM Tris (pH 7.4). After centrifugation for at least 30 min at 48,000× g, the pellet was resuspended in 50 mM Tris (pH 7.4), aliquoted and stored at −80 °C for further use. All centrifugation steps were carried out at 4 °C. Membrane preparations of the human wt A1AR and the human wt A2BAR were purchased from Perkin Elmer (Perkin-Elmer, Waltham, MA, USA) (catalogue numbers ES-010-M400UA and ES-013-M400UA).
Binding experiments were performed using 50 mM Tris buffer (pH 7.4) in a total volume of 400 µL for the A1AR, A2AAR, A3AR, and 1000 µL for the A2BAR. Initial screening was carried out in two independent experiments at 1 µM. Competition of compounds versus [^3H]CCPA (A1AR, final concentration 1 nM), [^3H]MSX-2 (A2AAR, final concentration 1 nM), [^3H]PSB-603 (A2BAR, final concentration 0.3 nM) and [^3H]PSB-11 (A3AR, final concentration 1 nM) was investigated. An amount of 7.5–25 µg of total protein per well was employed, incubated with 2 U of adenosine deaminase per mL beforehand. Non-specific binding was determined in the presence of 10 µM of 2-chloroadenosine, 10 µM of CGS 15943, 10 µM of 8-cyclopently-1,3-dipropylxanthine or 100 µM of (R)-N^6-phenylisopropyadenosine for A1-, A2A-, A2B- and A3ARs, respectively. Competition association experiments (at 25 °C) were performed in the same way but the protein was added delayed at indicated time points and the cell membranes were harvested after 1 min. Incubation was terminated by rapid filtration through GF/B glass fiber filters (Whatman) using a 48-well harvester (Brandel) after 90 (A1AR), 30 (A2AAR), 75 (A2BAR), and 45 min (A3AR) of incubation, respectively. Filters were pre-incubated with 0.3% (w/v) of PEI for 30–60 min in case of the A2AAR assay. Filters were rinsed three times with ice-cold 50 mM Tris, pH 7.4 (supplemented with 0.1% (w/v) bovine serum albumin for the A2BAR) and transferred into scintillation vials. Filters were then incubated with 2.5 mL of scintillation cocktail (ProSafe FC plus) for at least 6 h. Subsequently, radioactivity was determined using a liquid scintillation counter (Tricarb 2810TR, Perkin Elmer).

`CCCn1c(=O)[nH]c2nc(-c3ccc(S(=O)(=O)F)cc3)[nH]c2c1=O` [6a, 4-(2,6-Dioxo-1-propyl-2,3,6,7-tetrahydro-1H-purin-8-yl)benzenesulfonyl fluoride] gave a Ki of 406 ± 194 nM.
Work on `CCCn1c(=O)c2[nH]c(-c3ccc(S(=O)(=O)F)cc3)nc2n(C)c1=O` [6b, 4-(3-Methyl-2,6-dioxo-1-propyl-2,3,6,7-tetrahydro-1H-purin-8-yl)benzenesulfonyl fluoride] yielded a Ki of 293 ± 92 nM.
`CCCn1c(=O)c2[nH]c(-c3ccc(S(=O)(=O)F)cc3)nc2n(C2CC2)c1=O` [6c, 4-(3-Cyclopropyl-2,6-dioxo-1-propyl-2,3,6,7-tetrahydro-1H-purin-8-yl)benzenesulfonyl fluoride] gave a Ki of 41.5 ± 2.8 nM.
`CCCn1c(=O)[nH]c2nc(-c3ccc(S(=O)(=O)N4CCC(NC(=O)c5ccc(S(=O)(=O)F)cc5)CC4)cc3)[nH]c2c1=O` [compound 12, 4-((1-((4-(2,6-Dioxo-1-propyl-2,3,6,7-tetrahydro-1H-purin-8-yl)phenyl)sulfonyl)piperidin-4-yl)carbamoyl)benzenesulfonyl fluoride] was tested, and the “A1AR vs. Radioligand [3H]CCPA % inhibition at 1 µM” value (1 µM) was 22% and the Ki was > 1000 nM.
